US20180235916A1, “ENHANCING BETA CELL REPLICATION AND/OR SURVIVAL” (priority 2015, published 2018)
≈ marks a conversion by molar mass, not a printed value. Entries after “also recorded” stand apart in the source; their conditions may differ. Where two headings read alike, the source gives them in different places.

Key:
[1] = Solubility of test compounds (stock solutions)
INS-1 cells = assay: INS-1 cell proliferation, 3H-thymidine incorporation assay; type: cell-based; conditions: for INS-1 cell proliferation, single agents of TSPO experiment: each agent alone, midazolam or clonazepam 100 nM; for effect on GABA-stimulated INS-1 cell proliferation: low doses of PAM with GABA, FIG. 9 panels D-G
Method: (§1) 1. ^3H-thymidine incorporation assay: INS-1 cells at 1×10^5/well were treated in triplicate with indicated concentrations of individual compounds and cultured in 10% FCS RPMI164 medium in the presence of 0.3 μCi/well of 3H-thymidine for 48 hours (an optimal time period). The cells were harvested and the levels of ^3H-thymidine uptake in individual wells were measured by beta-counter.
as §1, with “0.3 uCi/well” for “0.3 μCi/well”, “of ^3H-thymidine” for “of 3H-thymidine”
INS-1 cells at 1×10^5/well were treated in triplicate with indicated concentrations of individual compounds and cultured in 10% FCS RPMI164 medium in the presence of ^3H-thymidine (0.3 μCi/well) for 48 hours (an optimal time period). The levels of ^3H-thymidine uptake in individual wells were measured by a scintillation counter.

human islets = type: cell-based
Method: FIG. 2. Human islets (50/well) were incubated in media with, or without, alprazolam (30 ng/ml) for 4 days in the presence of ^3H thymidine. Data shown are the average rate of proliferation relative to that of cultures with media alone (designated as 1). N=two independent studies with triplicate cultures. Data was very similar in both studies.
N=two independent studies

[2] = test system: adult human β-cells in islet xenoplants; conditions: oral GABA treatment; from less than 1% without; cited from earlier work
[3] = long-term oral GABA, human clinical trials, epileptic seizures and cerebrovascular disorders; cited from earlier work
[4] = target: mitochondrial translocator protein (TSPO) (Homo sapiens, UniProt P30536); conditions: cited from earlier work
[5] = persons receiving the drug therapeutically; cited from earlier work
[6] = patients with T1D or T2D, poor glucose control, after 8 weeks of treatment, vs placebo; cited from earlier work
EAE = conditions: stressed rats; cited from earlier work
[7] = compound alone at 10^−7-10^−8 M
[8] = GABA 0.3 mM, PK11195 1 uM, 48 hrs
[9] = PAM alone at 10 or/and 100 nM, FIG. 9 panel B
[10] = PAM 100 nM with GABA 0.3 mM, 48 hrs
[11] = PAM at 10^−7 or 3×10^−8 M with GABA

mitochondrial translocator protein (TSPO), sequence (P30536 whole entry): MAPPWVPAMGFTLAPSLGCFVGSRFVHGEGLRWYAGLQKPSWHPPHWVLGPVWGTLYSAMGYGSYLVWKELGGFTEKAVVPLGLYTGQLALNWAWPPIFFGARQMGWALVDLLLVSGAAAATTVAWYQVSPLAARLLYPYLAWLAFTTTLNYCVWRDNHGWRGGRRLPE

Compound: Cc1cc(NC(=O)/C(C#N)=C(\O)C2CC2)ccc1C(F)(F)F [AP325]
- soluble in DMSO ([1]; in DMSO): 50 mM
- effect on GABA-induced INS-1 cell proliferation (INS-1 cells; AP325 at 10^−7-10^−8 M with GABA, FIG. 7): significantly enhanced GABA-induced INS-1 cell proliferation
- INS-1 cell proliferation (toxicity at high dose) (INS-1 cells; compound alone at 10^−4-10^−5 M, FIG. 6): significantly inhibited INS-1 cell proliferation
- INS-1 cell proliferation (INS-1 cells; compound alone at 10^−6-10^−10, FIG. 6): did not increase significantly the proliferation of INS-1 cells
- INS-1 cell proliferation (INS-1 cells; [7]): slightly increased the proliferation of INS-1 cells
- INS-1 cell proliferation (INS-1 cells; compound at 3×10^−7-10^−8 M together with 0.03 mM GABA): significantly promoted INS-1 cell proliferation
- INS-1 cell proliferation (INS-1 cells; compound at 10^−6 M, data not shown): did not significantly change the proliferation of INS-1 cells
- INS-1 cell proliferation (INS-1 cells; compound at 10^−7 together with 0.01 mM GABA): significantly stimulated INS-1 cell proliferation

Compound: NCCCC(=O)O [GABA, gamma-aminobutyric acid]
- human islet cell proliferation (human islets; 0.03 mM GABA alone, 4 days, FIG. 3): did not significantly enhance human islet cell proliferation
- human islet cell proliferation (human islets; 0.03 mM GABA alone, FIG. 12): did not significantly enhance human islet cell proliferation
- human islet cell proliferation (human islets; GABA alone at 0.3-3 mM, FIG. 12): significantly enhanced human islet cell proliferation
- level of GABA alone required to achieve a similar level of proliferation (human islets; similar to 0.03 mM GABA + 100 nM alprazolam, FIG. 12): 0.3 mM
- level of GABA alone required to achieve a similar level of proliferation (human islets; similar to 0.03 mM GABA + alprazolam 30 ng/ml, FIG. 3): 0.3 mM
- replicating adult human β-cells in islet xenoplants [2]: 2-3%
- INS-1 cell proliferation (INS-1 cells; 0.01 mM GABA alone, FIG. 9 panels C-G): did not stimulate INS-1 proliferation
- INS-1 cell proliferation (INS-1 cells; GABA alone at 0.03-0.01 mM): failed to induce INS-1 cell proliferation; also recorded: did not significantly stimulate INS-1 cell proliferation
- INS-1 cell proliferation (INS-1 cells; GABA alone at 0.03-0.3 mM, FIG. 9 panels C-G): stimulated INS-1 cell proliferation
- INS-1 cell proliferation (INS-1 cells; GABA alone at 1-0.1 mM): stimulated INS-1 cell proliferation
- INS-1 cell proliferation, single agents of TSPO experiment (INS-1 cells; [8]): induced INS-1 cell proliferation
- adverse effects [3]: no adverse effects
- clinical benefit [3]: no clinical benefit

Compound: CCC(C)N(C)C(=O)c1cc2ccccc2c(-c2ccccc2Cl)n1 (centres unmarked) [PK11195]
- effect of TSPO inhibitor on GABA + midazolam or clonazepam enhanced INS-1 cell proliferation (INS-1 cells; PK11195 1 uM, GABA 0.3 mM, PAM 100 nM, 48 hrs, FIG. 9 panel H): not affected by PK11195; also recorded: did not affect the ability of GABA and the tested benzodiazepines to enhance INS-1 cell replication
- INS-1 cell proliferation, single agents of TSPO experiment (INS-1 cells; [8]): but not clonazepam or PK11195 induced INS-1 cell proliferation

Compound: Cc1nnc2n1-c1ccc(Cl)cc1C(c1ccccc1)=NC2 [alprazolam]
- human islet cell proliferation (human islets; 0.03 mM GABA together with 100 nM alprazolam, FIG. 12): significantly enhanced human islet cell proliferation
- human islet cell proliferation enhanced (human islets; 0.03 mM GABA together with alprazolam 30 ng/ml, 4 days, FIG. 3): 138%
- human islet cell proliferation promoted compared to cultures with no alprazolam (human islets; alprazolam 30 ng/ml alone, no added GABA, 4 days, FIG. 2): about 123%
- human islet cell proliferation relative to the corresponding GABA (alone) dose (human islets; co-treatment 100 nM alprazolam and GABA, FIG. 12): significantly increased human islet cell proliferation
- human islet cell proliferation (human islets; dose range of alprazolam alone, low concentrations, FIG. 10): promoted human islet cell proliferation
- binding to TSPO [4]: does not bind to TSPO
- concentration in the serum [5]: 10 to 100 ng/mL
- HbA1c levels [6]: significantly reduced
- INS-1 cell proliferation (INS-1 cells; 0.01 mM GABA in the presence of 30 or 100 nM alprazolam, FIG. 9 panel C): significantly increased INS-1 cell proliferation
- INS-1 cell proliferation (INS-1 cells; [9]): significantly stimulated proliferation of INS-1 cells
- ability to enhance GABA's pro-mitotic effects on INS-1 cells (INS-1 cells; alprazolam at high concentration of GABA (0.1 or 0.3 mM)): had less ability to enhance GABA's pro-mitotic effects
- EAE and inflammation in the spinal cords (EAE): inhibited EAE and inflammation in the spinal cords

Compound: O=C1CN=C(c2ccccc2Cl)c2cc([N+](=O)[O-])ccc2N1 [clonazepam]
- INS-1 cell proliferation (INS-1 cells; [10]): enhanced cell proliferation
- effect on GABA-induced INS-1 cell proliferation (INS-1 cells; [11]): significantly enhanced GABA-stimulated INS-1 cell proliferation
- INS-1 cell proliferation (INS-1 cells; compound alone at 10^−4-10^−9 M, 48 hours): did not significantly change the proliferation of INS-1 cells
- INS-1 cell proliferation, single agents of TSPO experiment (INS-1 cells; [8]): but not clonazepam or PK11195 induced INS-1 cell proliferation
- effect on GABA-stimulated INS-1 cell proliferation (INS-1 cells): enhanced GABA-stimulated INS-1 cell proliferation

Compound: Cc1ncc2n1-c1ccc(Cl)cc1C(c1ccccc1F)=NC2 [midazolam]
- solubility ([1]; water): 6.25 mM (≈ 2040 µg/mL)
- INS-1 cell proliferation (INS-1 cells; [10]): enhanced cell proliferation
- INS-1 cell proliferation (INS-1 cells; [9]): significantly stimulated proliferation of INS-1 cells
- effect on GABA-induced INS-1 cell proliferation (INS-1 cells; [11]): enhanced GABA-induced INS-1 cell proliferation
- INS-1 cell proliferation (INS-1 cells; PAM at 10^−7 or 3×10^−8 M with GABA at 0.03-0.01 mM): significantly enhanced INS-1 cell proliferation
- toxicity against INS-1 cells (INS-1 cells; compound alone at 10^−5 M): slight toxicity
- INS-1 cell proliferation (INS-1 cells; compound alone at 10^−7-3×10^−8 M, FIG. 4B): significantly enhanced the proliferation of INS cells
- INS-1 cell proliferation (INS-1 cells; [7]): significantly enhanced INS-1 cell proliferation
- INS-1 cell proliferation, single agents of TSPO experiment (INS-1 cells; [8]): induced INS-1 cell proliferation
- effect on GABA-stimulated INS-1 cell proliferation (INS-1 cells): enhanced GABA-stimulated INS-1 cell proliferation
